Results published in US20090074876A1, “PEPTIDE COMPOSITION AND A METHOD OF PROMOTING CARTILAGE FORMATION” (Acologix, Inc., priority 2007, published 2009).
Where a SMILES comes first, the peptide text is derived from it.

Columns and labels:
[1] = tested on: osteochondral defect in goat stifle joint; conditions: in vivo
Procedure: In this study, the use of two different concentrations (See Table 1) of AC-100 in conjunction with a collagen sponge and a control with just the collagen sponge was implanted to evaluate the efficacy of AC-100 in repair of bone and cartilage (osteochondral) defects. The implants were intended to serve as an osteochondral allograft for cellular and matrix ingrowth. Efficacy to repair cartilage was assessed using gross and histological examination of the repair tissue. The primary objective was to determine whether AC-100 modifies and/or improves the healing of the osteochondral defect as compared to the study control group and the natural progression of historical controls using this model. This report describes the in vivo, gross and histological findings at the 12 and 24 weeks time points.
A single full-thickness chondral defects were created in the right hind leg stifle joint. The lesion site was located in the anterior medial femoral condyle. The basic surgical procedure was identical for all subjects. All surgeries were performed under strict asepsis. […]
Postoperative checks were made for any animal displaying signs of postoperative discomfort. […] All treatments were recorded in the appropriate study documentation. […]
Animals were humanely sacrificed at Day 84 (12 weeks) or Day 168 (24 weeks) postoperatively. Bodyweights were recorded immediately prior to sacrifice. […]

[2] = tested on: human mesenchymal stem cells (hMSC); assay: proliferation assay with human mesenchymal stem cells, tritiated thymidine incorporation; assay type: cell-based; conditions: as compared to the vehicle
Procedure: The peptide of SEQ ID NO:34 was tested for its proliferation activity on human mesenchymal stem cells as compared to CMP-2 and IGF-1.
The same protocol and positive controls were used in this experiment.
SEQ ID NO:34 was selected for this experiment since the amino acid sequence of this peptide was derived from the corresponding region in rat and mouse MEPE where AC-100 was derived from human MEPE. Furthermore, as compared to all other known mammalian corresponding regions to AC-100, it is the least homologous to AC-100 (the human sequence).

[3] = tested on: 8 mm diameter defect in the rat parietal bones; assay: rat calvaria defect model, bone bridging; assay type: in vivo; conditions: collagen sponge in defect, daily s.c. injections for 6 days, 28 days post-surgery, histology qualitative score; vs saline and AC-100
Procedure: AC-101, 102, and 103 were tested for their defect bridging activities as compared to AC-100.
As a next step, necessity of RGD integrin-binding motif (SEQ ID NO:42) and SGDG glycosaminoglycan attachment motif (SEQ ID NO:43) to the bone formation activities was examined by testing the selected peptides synthesized in EXAMPLE 1 in a rat calvaria defect model. In this model an 8 mm diameter defect is created in the rat parietal bones and a collagen sponge cut to size is inserted into the defect. The test article is soaked into the sponge. Sub-cutaneous injections are administered daily for 6 days post-surgery. After 28 days post-surgery the rats are euthanized and the calvariae collected. The degree of bone bridging was determined by histology analysis using a qualitative scoring system. The tested peptides were SEQ ID NO: 22, 23, and 24, which were also encoded as AC-101, AC-102, and AC-103, respectively.
AC-100 that includes both the RGD integrin-binding motif and the SGDG glycosaminoglycan attachment motif was used as a positive control at the optimal dose.

CC[C@H](C)[C@H](NC(=O)[C@H](CC(=O)O)NC(=O)[C@H](CC(N)=O)NC(=O)[C@H](CC(=O)O)NC(=O)CNC(=O)[C@H](CCCNC(=N)N)NC(=O)[C@H](CCC(=O)O)NC(=O)[C@H](CCC(N)=O)NC(=O)[C@H](CC(C)C)NC(=O)[C@H](CC(=O)O)NC(=O)[C@@H](N)[C@@H](C)O)C(=O)N[C@@H](CO)C(=O)N1CCC[C@H]1C(=O)N[C@@H](Cc1ccccc1)C(=O)N[C@@H](CO)C(=O)NCC(=O)N[C@@H](CC(=O)O)C(=O)NCC(=O)N[C@@H](CCC(N)=O)C(=O)N1CCC[C@H]1C(=O)N[C@@H](Cc1ccccc1)C(=O)N[C@@H](CCCCN)C(=O)N[C@@H](CC(=O)O)C(N)=O [AC-100] (H-TDLQERGDNDISPFSGDGQPFKD-NH2)
adverse events [1]: No adverse events were identified | inflammatory response in sections [1]: no evidence of an inflammatory response

IGF-1: Insulin-like Growth Factor-1, positive control in hMSC proliferation assay
proliferation activities of the hMSC by tritiated-thymidine incorporation [2]: Significant proliferation activities

PDLLVRGDNDVPPFSGDGQHFMH [SEQ ID NO:34]
proliferation activities of the hMSC by tritiated-thymidine incorporation [2]: Significant proliferation activities

TDLQEDGRNDISPFGDGSQPFKD [AC-103]
degree of bone bridging [3]: improved versus saline treatment alone and was comparable to the activity of AC-100

TDLQEDGRNDISPFSGDGQPFKD [AC-101]
degree of bone bridging [3]: improved versus saline treatment alone and was comparable to the activity of AC-100

TDLQERGDNDISPFGDGSQPFKD [AC-102]
degree of bone bridging [3]: improved versus saline treatment alone and was comparable to the activity of AC-100
